The values below come from patent US8765666B2, “Adenovirus dodecahedron particles for delivery of pharmaceutical agents” (Instytut Bio chemii i Biofizki PAN, priority 2009, dated 2014).

For this test, the system named is HeLa cells. Kind of test: MTT cytotoxicity test. The conditions noted are these: results not shown. The procedure:
In the test, the ability of live cells to reduce the soluble yellow tetrazolium salt (MTT) to blue formazan crystals is used. […] After 3 hours, foetal bovine serum was added to a final concentration of 10%. After various incubation times at 37° C., the incubation medium was removed and 100 μL EMEM containing 0.5 mg/mL MTT (Sigma) was added. The plates were incubated according to the manufacturer's instructions; optical density measurements were carried out using an HTi reader (Biotek, VT Winooski, USA). The number of live cells was calculated according to the protocol (Mosmann, 1983).

Structures can show the parent of a compound that is named as a salt.

Consider `Cc1c(N)nc(C(CC(N)=O)NCC(N)C(N)=O)nc1C(=O)NC(C(=O)NC(C)C(O)C(C)C(=O)NC(C(=O)NCCc1nc(-c2nc(C(=O)NCCCNCCCCN)cs2)cs1)C(C)O)C(OC1OC(CO)C(O)C(O)C1OC1OC(CO)C(O)C(OC(N)=O)C1O)c1c[nH]cn1` (stereo not shown) [BLM, Bleomycin A5 hydrochloride], for which the “free BLM concentration giving cell mortality similar to Dd-BLM” value is 8 µM.
